A short description of series [1]: Inhibition of ABCB1 in multidrug-resistant human SW620/Ad300 cells assessed as increase in reversal of resistance to paclitaxel-induced cytotoxicity by measuring paclitaxel IC50 pre-incubated for 4 hrs followed by paclitaxel addition and measured after 72 hrs by MTT assay (reference value: 4.23 +/- 0.6 uM). (Tetrazolium assays rely on reduction of a dye to a coloured formazan, in cell work by metabolically active cells.)

Series [2] deals with SW-620. The series can be described thus: Antitumor activity against human SW620/Ad300 cells xenografted in BALB/c mouse assessed as induction of tumor apoptosis by measuring nuclear pyknosis at 20 mg/kg/day, ig for 21 days by TUNEL assay. It counts as functional, organism-based. The conditions noted are these: time 21.0 day. Background: In xenograft studies the graft and the host belong to different species.

The test system of series [3] is SW-620. The series can be described thus: Antitumor activity against human SW620/Ad300 cells xenografted in BALB/c mouse assessed as reduction in tumor volume at 20 mg/kg/day, ig for 21 days. It counts as functional, organism-based. The conditions noted are these: time 21.0 day.
Series [4] deals with SW-620. Description: Potentiation of PTX-induced antitumor activity against human SW620/Ad300 cells xenografted in BALB/c mouse assessed as reduction in tumor volume at 20 mg/kg/day, ig for 21 days relative to PTX alone. The format is functional, organism-based. The settings on record: time 21.0 day.
Series [5] addresses Multidrug resistance-associated protein 1 (Homo sapiens, UniProt P33527). Description: Stabilization of ABCC1 in human SW620/Ad300 cells assessed as inhibition of high temperature-induced ABCB1 protein degradation at 200 uM incubated for 30 mins by cellular thermal shift assay. The conditions noted are these: sw-620, 0.5 h. It counts as cell-based.
Series [6] deals with T1, ATP-dependent translocase ABCB1 (Homo sapiens, UniProt P08183). The series can be described thus: Stabilization of ABCB1 in human SW620/Ad300 cells assessed as inhibition of high temperature-induced ABCB1 protein degradation at 200 uM incubated for 30 mins by cellular thermal shift assay. The format is cell-based. The conditions noted are these: sw-620, 0.5 h.
The next series concerns the target CYP3A4 (Homo sapiens, UniProt P08684). Description: Activation of CYP3A4 in human liver microsomes at 20 uM after 30 mins in presence of CYP3A4 substrate/NADP+ by fluorescence based assay. It counts as ADME. The settings on record: read-out: FC. Background: Microsomes from liver hold many membrane-bound enzymes, among them those of drug oxidation.
The next series deals with Cytochrome P450 3A4 (Homo sapiens, UniProt P08684). Description: Activation of CYP3A4 in human liver microsomes at 30 uM incubated for 10 mins in presence of CYP3A4 substrate/NADP+ by fluorescence based assay. It counts as ADME.
The target in series [7] is T1, ATP-dependent translocase ABCB1. Description: Stimulation of ABCB1 ATPase activity (unknown origin) assessed as increase in inorganic phosphate release at 5 to 45 uM incubated for 20 mins in presence of Mg-ATP by spectrophotometry. The settings on record: dose 5-45 µM.
For series [8], the system named is SW-620. Description: Effect on ABCB1 subcellular localization in human SW620/Ad300 cells at 20 uM incubated for 72 hrs by Western blotting analysis. It counts as functional, cell-based.
In series [9] the test system is SW-620. Description: Effect on ABCB1 protein expression in human SW620/Ad300 cells at 20 uM incubated for 72 hrs by Western blotting analysis. It counts as functional, cell-based.
Series [10] relates to SW-620. Description: Inhibition of [3H]PTX efflux in human SW620 cells at 20 uM pre-incubated for 4 hrs followed by PTX addition and measured after 2 hrs by liquid scintillation counting analysis. It counts as functional, cell-based. The conditions noted are these: time 6.0 hrs.
Series [11] has as its system SW-620. The series can be described thus: Effect on intracellular PTX concentration in human SW620 cells at 20 uM pre-incubated for 4 hrs followed by PTX addition and measured after 2 hrs by liquid scintillation counting analysis. The format is functional, cell-based. The settings on record: time 6.0 hrs.
The nature of series [12]: Reversal of resistance to paclitaxel-induced cytotoxicity in HEK293 cells assessed as reduction in paclitaxel IC50 at 20 uM pre-incubated for 4 hrs followed by paclitaxel addition and measured after 72 hrs by MTT assay. The format is functional, Homo sapiens. The settings on record: time 76 hrs.
Series [13] is described as follows: Reversal of resistance to paclitaxel-induced cytotoxicity in HEK293 cells assessed as reduction in paclitaxel IC50 at 10 uM pre-incubated for 4 hrs followed by paclitaxel addition and measured after 72 hrs by MTT assay. The format is functional, Homo sapiens. The conditions noted are these: time 76 hrs.
The subject of series [14] is SW-620. Description: Potentiation of PTX-induced antitumor activity against human SW620/Ad300 cells xenografted in BALB/c mouse assessed as reduction in tumor weight at 20 mg/kg/day, ig for 21 days relative to PTX alone. It counts as functional, organism-based. The settings on record: time 21.0 day.
The nature of series [15]: Reversal of resistance to paclitaxel-induced cytotoxicity in human KB-3-1 cells assessed as reduction in paclitaxel IC50 at 20 uM pre-incubated for 4 hrs followed by paclitaxel addition and measured after 72 hrs by MTT assay. The settings on record: time 76 hrs. The format is functional.
Series [16] in a line: Reversal of resistance to paclitaxel-induced cytotoxicity in human KB-3-1 cells assessed as reduction in paclitaxel IC50 at 10 uM pre-incubated for 4 hrs followed by paclitaxel addition and measured after 72 hrs by MTT assay. It counts as functional. The conditions noted are these: time 76 hrs.
Series [17] is described as follows: Reversal of resistance to paclitaxel-induced cytotoxicity against human SW620 cells by measuring reduction in paclitaxel IC50 at 20 uM pre-incubated for 4 hrs followed by paclitaxel addition and measured after 72 hrs by MTT assay. It counts as functional, SW-620. The settings on record: time 76 hrs.
Series [18] can be described thus: Reversal of resistance to paclitaxel-induced cytotoxicity against human SW620 cells by measuring reduction in paclitaxel IC50 at 10 uM pre-incubated for 4 hrs followed by paclitaxel addition and measured after 72 hrs by MTT assay. The format is functional, SW-620. The conditions noted are these: time 76 hrs.
The subject of series [19] is SW-620. Description: Antitumor activity against human SW620/Ad300 cells xenografted in BALB/c mouse assessed as induction of tumor death by measuring nuclear pyknosis at 20 mg/kg/day, ig for 21 days by H and E staining based assay. The settings on record: time 21.0 day. The format is functional, organism-based.
The nature of series [20]: Toxicity in BALB/c mouse xenografted with human SW620/Ad300 cells assessed as induction of liver injury at 20 mg/kg/day, ig by H and E staining based assay. The format is organism-based. The settings on record: in vivo, po.
A short description of series [21]: Toxicity in BALB/c mouse xenografted with human SW620/Ad300 cells assessed as effect on body weight changes at 20 mg/kg/day, ig. It counts as organism-based. The conditions noted are these: in vivo, po.
Series [22] in a line: Toxicity in BALB/c mouse xenografted with human SW620/Ad300 cells assessed as induction of mortality at 20 mg/kg/day, ig. The format is organism-based. The settings on record: in vivo, po.
Series [23] relates to SW-620. The series can be described thus: Effect on intracellular PTX concentration in human SW620 cells at 4 uM pre-incubated for 4 hrs followed by PTX addition and measured after 2 hrs by liquid scintillation counting analysis. It counts as functional, cell-based. The conditions noted are these: time 6.0 hrs.
Series [24] deals with SW-620. The settings on record: Homo sapiens, dose 6.0 mg/kg/day, time 21.0 day.
A short description of series [25]: Toxicity in human SW-620/Ad300 cells assessed as cell viability at 20 uM incubated for 72 hrs by MTT assay. It counts as cell-based. The conditions noted are these: read-out: Activity.

The source made the active and inactive calls. The rule behind the calls is not given here.

T1 sequence (P08183 whole entry): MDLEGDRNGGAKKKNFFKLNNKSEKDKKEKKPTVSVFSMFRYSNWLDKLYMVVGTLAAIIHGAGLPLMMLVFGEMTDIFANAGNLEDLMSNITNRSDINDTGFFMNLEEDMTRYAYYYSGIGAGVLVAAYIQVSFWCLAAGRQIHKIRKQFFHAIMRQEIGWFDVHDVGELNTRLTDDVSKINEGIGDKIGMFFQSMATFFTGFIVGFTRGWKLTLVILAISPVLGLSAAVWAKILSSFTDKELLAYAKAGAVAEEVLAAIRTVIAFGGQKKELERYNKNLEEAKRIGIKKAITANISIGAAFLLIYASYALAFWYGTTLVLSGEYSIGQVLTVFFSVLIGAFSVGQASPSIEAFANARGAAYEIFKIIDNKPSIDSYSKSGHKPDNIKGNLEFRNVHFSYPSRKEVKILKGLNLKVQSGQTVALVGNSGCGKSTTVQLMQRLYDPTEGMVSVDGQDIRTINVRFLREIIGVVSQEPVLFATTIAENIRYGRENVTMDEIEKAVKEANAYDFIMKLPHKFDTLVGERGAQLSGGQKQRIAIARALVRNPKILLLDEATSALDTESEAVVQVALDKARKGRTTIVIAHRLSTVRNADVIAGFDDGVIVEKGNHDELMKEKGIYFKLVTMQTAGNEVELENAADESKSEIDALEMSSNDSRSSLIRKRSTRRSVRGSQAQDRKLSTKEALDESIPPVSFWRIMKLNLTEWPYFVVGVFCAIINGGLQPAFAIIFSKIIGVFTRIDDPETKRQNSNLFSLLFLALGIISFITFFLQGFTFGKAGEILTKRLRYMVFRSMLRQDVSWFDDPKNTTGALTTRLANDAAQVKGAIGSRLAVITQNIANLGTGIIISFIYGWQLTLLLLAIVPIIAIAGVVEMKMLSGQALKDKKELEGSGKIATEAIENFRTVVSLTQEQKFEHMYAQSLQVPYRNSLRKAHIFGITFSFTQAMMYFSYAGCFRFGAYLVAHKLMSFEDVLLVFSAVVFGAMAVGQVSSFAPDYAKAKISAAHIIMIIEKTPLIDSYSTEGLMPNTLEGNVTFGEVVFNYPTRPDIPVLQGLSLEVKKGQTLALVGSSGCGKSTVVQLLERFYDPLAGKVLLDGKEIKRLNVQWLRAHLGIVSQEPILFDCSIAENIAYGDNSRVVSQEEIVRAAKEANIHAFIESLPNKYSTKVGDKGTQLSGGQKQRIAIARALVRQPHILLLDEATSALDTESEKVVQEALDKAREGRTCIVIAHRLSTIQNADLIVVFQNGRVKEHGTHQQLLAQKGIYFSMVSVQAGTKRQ
Cytochrome P450 3A4, sequence (P08684 whole entry): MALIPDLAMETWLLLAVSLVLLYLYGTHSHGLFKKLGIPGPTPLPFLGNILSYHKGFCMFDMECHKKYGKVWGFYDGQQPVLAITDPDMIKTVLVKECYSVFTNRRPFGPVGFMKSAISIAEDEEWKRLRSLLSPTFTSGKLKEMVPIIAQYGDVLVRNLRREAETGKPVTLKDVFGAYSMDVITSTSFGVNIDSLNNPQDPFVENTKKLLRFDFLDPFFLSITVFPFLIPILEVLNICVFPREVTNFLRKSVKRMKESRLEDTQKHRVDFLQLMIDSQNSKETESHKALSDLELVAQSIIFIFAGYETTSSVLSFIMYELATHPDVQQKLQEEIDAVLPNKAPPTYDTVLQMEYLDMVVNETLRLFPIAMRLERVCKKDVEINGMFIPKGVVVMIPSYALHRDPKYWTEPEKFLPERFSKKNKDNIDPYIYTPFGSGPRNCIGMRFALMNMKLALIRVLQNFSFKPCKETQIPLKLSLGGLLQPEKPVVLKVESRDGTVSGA
CYP3A4, sequence (P08684 whole entry): as above
Multidrug resistance-associated protein 1, sequence (P33527 whole entry): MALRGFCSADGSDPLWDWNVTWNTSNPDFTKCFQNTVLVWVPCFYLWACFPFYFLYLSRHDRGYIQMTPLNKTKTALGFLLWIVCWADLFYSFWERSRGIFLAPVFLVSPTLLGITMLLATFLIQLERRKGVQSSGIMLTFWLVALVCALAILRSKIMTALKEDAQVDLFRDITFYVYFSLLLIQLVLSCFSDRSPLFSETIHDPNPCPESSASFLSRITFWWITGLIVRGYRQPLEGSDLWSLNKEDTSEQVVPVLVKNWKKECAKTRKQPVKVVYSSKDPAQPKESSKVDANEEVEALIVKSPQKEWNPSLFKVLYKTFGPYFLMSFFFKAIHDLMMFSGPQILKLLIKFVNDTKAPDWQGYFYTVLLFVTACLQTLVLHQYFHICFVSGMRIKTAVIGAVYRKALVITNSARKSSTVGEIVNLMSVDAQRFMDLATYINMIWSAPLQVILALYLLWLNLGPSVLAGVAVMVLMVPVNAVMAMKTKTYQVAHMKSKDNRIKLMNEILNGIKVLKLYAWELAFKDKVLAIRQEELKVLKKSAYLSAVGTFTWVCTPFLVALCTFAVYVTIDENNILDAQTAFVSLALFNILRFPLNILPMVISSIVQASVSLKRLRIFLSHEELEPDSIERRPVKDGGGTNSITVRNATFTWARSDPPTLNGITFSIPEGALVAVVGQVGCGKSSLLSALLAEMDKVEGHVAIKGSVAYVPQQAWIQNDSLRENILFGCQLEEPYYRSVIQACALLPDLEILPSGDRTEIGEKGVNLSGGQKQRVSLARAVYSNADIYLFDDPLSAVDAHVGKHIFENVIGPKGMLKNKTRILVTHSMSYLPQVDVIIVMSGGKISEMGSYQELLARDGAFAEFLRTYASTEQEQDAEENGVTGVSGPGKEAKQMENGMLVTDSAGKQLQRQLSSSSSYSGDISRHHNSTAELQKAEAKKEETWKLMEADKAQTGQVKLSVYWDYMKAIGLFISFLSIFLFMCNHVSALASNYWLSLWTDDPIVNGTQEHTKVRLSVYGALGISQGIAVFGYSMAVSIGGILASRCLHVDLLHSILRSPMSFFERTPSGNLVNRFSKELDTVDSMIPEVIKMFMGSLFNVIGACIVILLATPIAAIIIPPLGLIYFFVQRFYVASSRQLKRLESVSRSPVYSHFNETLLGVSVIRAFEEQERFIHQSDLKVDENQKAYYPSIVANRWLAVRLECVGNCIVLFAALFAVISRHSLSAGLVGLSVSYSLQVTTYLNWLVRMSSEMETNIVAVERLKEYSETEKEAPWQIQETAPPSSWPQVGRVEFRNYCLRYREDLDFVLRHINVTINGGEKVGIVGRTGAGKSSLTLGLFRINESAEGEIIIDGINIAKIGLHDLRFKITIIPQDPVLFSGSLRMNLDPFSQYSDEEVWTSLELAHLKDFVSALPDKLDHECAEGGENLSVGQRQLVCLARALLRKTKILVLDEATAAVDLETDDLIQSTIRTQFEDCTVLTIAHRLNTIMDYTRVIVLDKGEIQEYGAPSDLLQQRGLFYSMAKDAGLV

A word on the IC50: it is the concentration that inhibits the measured activity by half. Turning to `N#Cc1c(Nc2cccc(Cl)c2)nc(SCC(=O)NC(=O)Nc2ccccn2)nc1-c1ccccc1`, the IC50 in series [1] was found to be 5000 nM.

Regarding `CCc1cc(Nc2ccc(F)cc2)n2nc(SCc3ccccc3)nc2n1`, the IC50 in [1] was found to be 1610 nM.

Regarding `COc1ccc(CSc2nc3nc(C)cc(Nc4ccc(F)cc4)n3n2)cc1`, the IC50 in series [1] worked out at 1930 nM.

On to `Cc1cc(Nc2ccc(O)c(Cl)c2)n2nc(SCc3nc4ccccc4[nH]3)nc2n1`, for which the IC50 in series [1] came to 3220 nM.

On to `Cc1ccccc1Nc1nc(SCc2cn(Cc3ccc(Cl)cc3)nn2)nc(-c2ccccc2)c1C#N`, for which the IC50 in [1] was found to be 36000 nM.

With `Cc1cc(Nc2ccccc2)n2nc(SCc3nc4ccccc4[nH]3)nc2n1`, in series [1], the IC50 was determined as 46 nM.

With `Cc1cc(Nc2cc(F)c(F)cc2F)n2nc(SCc3nc4ccccc4[nH]3)nc2n1`, in series [1], the IC50 is 260 nM.

Turning to `Cc1ccc(CSc2nc3nc(C)cc(Nc4ccc(F)cc4)n3n2)cc1`, the IC50 in series [1] amounted to 2040 nM.

For `Cc1cc(Nc2ccc(F)cc2)n2nc(SCc3nc4ccccc4[nH]3)nc2n1`, the outcome in the series on SW-620 [2] and with SW-620 [19] was Active. In addition, the TGI entry with SW-620 [3] was “inactive”. Further, the TGI entry in the series with SW-620 [4] and with SW-620 [14] was “Active” in each case. Further, the Activity entry was “Not Active” in [5]; “Active” in series [6]; “Active” at Cytochrome P450 3A4; “Non-Toxic” in series [20]; “Non-Toxic” in [21]; “Non-Toxic” in series [22]. On CYP3A4, the fold induction at 0.5 h, 20 µM is 1.06. The “fold change (FC)” value in series [7] is reported as 2.5; in [12], 1.29; in series [13], 1.3; in series [15], 1.52; in series [16] it was 1.5; in [17] it was 1.5. Besides, the “fold change (FC)” value in series [18] is on record as 1.05. The result with SW-620 [8], in the series with SW-620 [9] and in the series on SW-620 [11] was inactive. The inhibition entry in the series on SW-620 [10] was “Active”.

For `COc1ccc(CCN(C)CCCC(C#N)(c2ccc(OC)c(OC)c2)C(C)C)cc1OC` (stereo not given), the outcome with SW-620 [23] was inactive. Besides, the TGI entry in the series on SW-620 [24] is “Active”.

For `Cc1cc(Nc2ccc(F)cc2)n2ncnc2n1`, the viability at 72 h, 20 µM in [25] came to 93.2%.

Turning to `Cc1cc(Nc2c(F)cccc2F)n2nc(SCc3nc4ccccc4[nH]3)nc2n1`, the IC50 in series [1] came to 790 nM.

Values taken from ChEMBL document CHEMBL4673345 (J Med Chem, 2020).
